This is an account of results in patent US20260297060A1, “COMPOUNDS FOR THE DEGRADATION OF MUTANT BRAF” (C4 THERAPEUTICS, INC., priority 2023, published 2026).

Where two headings read alike, the source gives them in different places.

The target of one assay is T1, BRAF V600E (Homo sapiens, UniProt P15056+Q96SW2, V600E).
T1 construct: knock-in of the HiBiT tag to the endogenous BRAF V600E locus; host or cells: A375.10 (A375 clonal line, CRISPR HiBiT knock-in at the endogenous BRAF V600E locus)
Put plainly: BRAF V600E HiBiT Degradation Assay. The format is cell-based. Summed up: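 Endogenous HiBiT knock-in on BRAF V600E in A375 cells (clone A375.10); 11-point half-log series, top 10 μM, 2, 6 or 24 h at 37° C. Lytic HiBiT luminescence, background-subtracted, normalized to DMSO; 4-parameter fit gives DC50, Emax (residual protein) and IP (inflection point).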
For orientation: With HiBiT, luminescence reflects the tagged protein that the partner subunit can reach.

In the next assay the test system is A375-NRAS^Q61K cells. The assay is described as follows: CTGlo Cell Viability Assay, A375-NRAS^Q61K (A375.11) cells, 96 hours. The format is cell-based, human. Particulars: A375.11 (A375-NRAS^Q61K) cells. Summed up:
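A375 cells carrying BRAF V600E and NRAS Q61K were seeded at 250 cells/well with a 10-point half-log dose series (max 10 μM final). After 96 h at 37 °C, viability was read as ATP luminescence (CellTiter-Glo), background-subtracted and normalized to DMSO (100%). GI50 from 4-parameter fit; Emax is the lowest % viability.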

[1] abbreviates: A375.10 cells, BRAF V600E, 2 hours, inflection point, read-out: HiBiT-Degradation A375.10 BRAF 2 hours IP.
The mark [2] stands for this setting: A375.10 cells, BRAF V600E, 2 hours, read-out: HiBiT-Degradation A375.10 BRAF 2 hours DC50.
The mark [3] stands for this setting: A375.10 cells, BRAF V600E, 2 hours, residual protein remaining, read-out: HiBiT-Degradation A375.10 BRAF 2 hours Emax.
Where [4] appears, read: A375.10 cells, HiBiT, BRAF V600E, 24 hours, read-out: HiBiT-Degradation A375.10 BRAF 24 hours DC50.
Setting [5] is: A375.10 cells, HiBiT, BRAF V600E, 24 hours, read-out: HiBiT-Degradation A375.10 BRAF 24 hours Emax.
Where [6] appears, read: A375.10 cells, HiBiT, BRAF V600E, 24 hours, read-out: HiBiT-Degradation A375.10 BRAF 24 hours IP.
The mark [7] stands for this setting: Homo sapiens, 96 h, lowest % viability achieved.

T1 sequence (P15056 whole entry V600E): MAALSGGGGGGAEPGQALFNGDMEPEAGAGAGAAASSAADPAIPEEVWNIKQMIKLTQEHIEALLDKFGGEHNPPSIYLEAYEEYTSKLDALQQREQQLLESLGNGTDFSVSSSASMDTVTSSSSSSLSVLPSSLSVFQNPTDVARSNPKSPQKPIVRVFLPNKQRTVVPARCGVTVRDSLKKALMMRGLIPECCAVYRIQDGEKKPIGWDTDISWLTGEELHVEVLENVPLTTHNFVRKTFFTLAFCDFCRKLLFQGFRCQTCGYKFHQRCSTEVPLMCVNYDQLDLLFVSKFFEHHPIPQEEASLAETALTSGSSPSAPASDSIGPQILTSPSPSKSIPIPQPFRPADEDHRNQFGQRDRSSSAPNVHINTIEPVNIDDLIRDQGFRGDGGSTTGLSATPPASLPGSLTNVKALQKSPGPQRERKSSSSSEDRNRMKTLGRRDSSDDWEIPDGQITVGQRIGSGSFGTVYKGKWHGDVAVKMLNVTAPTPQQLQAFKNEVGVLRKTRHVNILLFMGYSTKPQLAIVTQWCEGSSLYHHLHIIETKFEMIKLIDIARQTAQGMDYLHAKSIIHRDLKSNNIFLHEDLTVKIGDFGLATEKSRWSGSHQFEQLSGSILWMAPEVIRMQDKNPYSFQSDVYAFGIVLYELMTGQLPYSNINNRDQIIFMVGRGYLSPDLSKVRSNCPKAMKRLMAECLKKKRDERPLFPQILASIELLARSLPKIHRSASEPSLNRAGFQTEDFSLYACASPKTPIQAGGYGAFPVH
T1 sequence (Q96SW2 whole entry): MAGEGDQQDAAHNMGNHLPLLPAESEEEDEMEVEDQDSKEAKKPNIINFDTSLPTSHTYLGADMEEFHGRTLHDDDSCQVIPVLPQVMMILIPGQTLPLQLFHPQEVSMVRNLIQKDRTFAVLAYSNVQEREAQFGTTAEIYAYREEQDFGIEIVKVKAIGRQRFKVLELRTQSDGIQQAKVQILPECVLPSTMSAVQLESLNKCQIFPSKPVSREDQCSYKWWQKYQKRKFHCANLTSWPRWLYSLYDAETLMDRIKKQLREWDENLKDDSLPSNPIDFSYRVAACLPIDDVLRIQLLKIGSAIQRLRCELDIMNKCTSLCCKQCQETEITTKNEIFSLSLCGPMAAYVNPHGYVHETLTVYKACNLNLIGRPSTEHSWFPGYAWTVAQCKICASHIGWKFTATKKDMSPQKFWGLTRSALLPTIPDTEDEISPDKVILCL
T1 sequence (Q16531 whole entry partner): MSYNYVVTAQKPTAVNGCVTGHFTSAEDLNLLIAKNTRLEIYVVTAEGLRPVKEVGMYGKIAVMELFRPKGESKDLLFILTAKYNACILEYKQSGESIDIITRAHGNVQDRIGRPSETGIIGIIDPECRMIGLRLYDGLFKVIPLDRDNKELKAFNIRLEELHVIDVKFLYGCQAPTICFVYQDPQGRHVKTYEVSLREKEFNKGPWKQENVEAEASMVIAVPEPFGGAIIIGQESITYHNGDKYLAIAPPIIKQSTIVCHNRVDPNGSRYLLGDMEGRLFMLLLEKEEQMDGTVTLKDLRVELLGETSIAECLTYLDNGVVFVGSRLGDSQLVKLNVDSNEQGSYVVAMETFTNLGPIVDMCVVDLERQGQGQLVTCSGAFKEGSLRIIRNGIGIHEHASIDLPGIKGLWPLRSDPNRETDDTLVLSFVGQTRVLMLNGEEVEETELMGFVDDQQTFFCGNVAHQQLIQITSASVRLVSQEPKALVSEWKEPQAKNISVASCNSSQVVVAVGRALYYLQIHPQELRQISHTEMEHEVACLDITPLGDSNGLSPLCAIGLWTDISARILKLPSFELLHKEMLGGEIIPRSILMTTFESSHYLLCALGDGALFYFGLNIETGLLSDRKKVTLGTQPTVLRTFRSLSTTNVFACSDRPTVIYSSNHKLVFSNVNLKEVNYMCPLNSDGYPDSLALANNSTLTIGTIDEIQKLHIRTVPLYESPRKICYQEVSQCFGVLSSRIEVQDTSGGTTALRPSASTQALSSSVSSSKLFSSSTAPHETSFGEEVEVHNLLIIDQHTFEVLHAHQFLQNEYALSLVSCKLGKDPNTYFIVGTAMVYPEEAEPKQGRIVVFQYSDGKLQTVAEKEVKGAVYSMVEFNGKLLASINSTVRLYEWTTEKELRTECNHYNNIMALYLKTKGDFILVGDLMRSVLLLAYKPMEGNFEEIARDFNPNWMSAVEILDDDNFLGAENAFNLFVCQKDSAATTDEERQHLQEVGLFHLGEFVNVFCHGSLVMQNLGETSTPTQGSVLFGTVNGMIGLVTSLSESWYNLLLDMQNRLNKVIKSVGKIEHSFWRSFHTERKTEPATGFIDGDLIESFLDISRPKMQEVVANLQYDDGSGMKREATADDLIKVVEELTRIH

For orientation: GI50 means the concentration at which growth is held to half of that of the control. A higher GI50 goes with less potent growth inhibition. Take `CCN(C)S(=O)(=O)Nc1ccc(F)c(Oc2ccc3ncn([C@H]4COC5(C4)CN(C4CCN(c6cc7c(cc6F)c(N6CCC(=O)NC6=O)nn7C)CC4)C5)c(=O)c3c2)c1C#N` [Compound 309, (7R)-7-[6-[2-cyano-3-[[ethyl(methyl)sulfamoyl]amino]-6-fluoro-phenoxy]-4-oxo-quinazolin-3-yl]-2-[1-[3-(2,4-dioxohexahydropyrimidin-1-yl)-5-fluoro-1-methyl-indazol-6-yl]-4-piperidyl]-5-oxa-2-azaspiro[3.4]octane]: the DC50 at BRAF V600E (setting [1]) was less than 1000 nM; at BRAF V600E (setting [2]) it was greater than 10000 nM; on BRAF V600E (setting [4]), less than 1000 nM; at BRAF V600E (setting [6]) it was less than 1000 nM. In addition, the Emax at BRAF V600E (setting [3]) is 50 to 90%; at BRAF V600E (setting [5]), less than 50%; with A375-NRAS^Q61K cells (setting [7]), 50 to 90%. The GI50 with A375-NRAS^Q61K cells (Homo sapiens, 96 h) was greater than 10000 nM.
In the case of `CCN(C)S(=O)(=O)Nc1ccc(F)c(Oc2ccc3ncn([C@@H]4COC5(CCN(C6CCC(c7cc8c(cc7F)c(N7CCC(=O)NC7=O)nn8C)CC6)CC5)C4)c(=O)c3c2F)c1C#N` (single isomer, unassigned) [Compound 47], the “HiBiT-Degradation A375.10 BRAF 2 hours Emax” value at BRAF V600E is recorded as “*** (<=50%)”. Also, the DC50 is less than 1000 nM on BRAF V600E (setting [1]); less than 1000 nM on BRAF V600E (setting [2]); less than 1000 nM on BRAF V600E (A375.10 cells, BRAF V600E, 6 hours, inflection point, read-out: HiBiT-Degradation A375.10 BRAF 6 hours IP); less than 1000 nM at BRAF V600E (A375.10 cells, BRAF V600E, 6 hours, read-out: HiBiT-Degradation A375.10 BRAF 6 hours DC50); less than 1000 nM at BRAF V600E (setting [4]); less than 1000 nM at BRAF V600E (setting [6]). Further, the “HiBiT-Degradation A375.10 BRAF 6 hours Emax” value on BRAF V600E (A375.10 cells, BRAF V600E, 6 hours, residual protein remaining) was “*** (<=50%)”. Also, the “HiBiT-Degradation A375.10 BRAF 24 hours Emax” value at BRAF V600E (A375.10 cells, HiBiT, BRAF V600E, 24 hours) is given as “*** (<=50%)”. Moreover, the GI50 in the assay with A375-NRAS^Q61K cells was in the range of 1000 to 10000 nM. Moreover, the “CTGlo A375.11 96 hours Emax” value in the assay with A375-NRAS^Q61K cells (lowest % viability achieved) is “** (<90% and >50%)”.
Consider `CCN(C)S(=O)(=O)Nc1ccc(F)c(Oc2ccc3ncn([C@H]4COC5(CCN(CC6(O)CCN(c7cc8c(cc7F)c(N7CCC(=O)NC7=O)nn8C)CC6)CC5)C4)c(=O)c3c2)c1C#N` [Compound 230, (3R)-3-[6-[2-cyano-3-[[ethyl(methyl)sulfamoyl]amino]-6-fluoro-phenoxy]-4-oxo-quinazolin-3-yl]-8-[[1-[3-(2,4-dioxohexahydropyrimidin-1-yl)-5-fluoro-1-methyl-indazol-6-yl]-4-hydroxy-4-piperidyl]methyl]-1-oxa-8-azaspiro[4.5]decane], for which the DC50 on BRAF V600E (setting [1]), on BRAF V600E (setting [2]), at BRAF V600E (setting [4]) and at BRAF V600E (setting [6]) was less than 1000 nM in each case. Further, the Emax on BRAF V600E (setting [3]) was less than 50%; at BRAF V600E (setting [5]), less than 50%; in the assay with A375-NRAS^Q61K cells (setting [7]) it was 50 to 90%. In the assay on A375-NRAS^Q61K cells (Homo sapiens, 96 h), this molecule yielded a GI50 of less than 1000 nM.
Regarding `CCN(C)S(=O)(=O)Nc1ccc(F)c(Oc2ccc3ncn([C@H]4COC5(C4)CN(C4CC6(C4)CN(c4cc7c(cc4F)c(N4CCC(=O)NC4=O)nn7C)C6)C5)c(=O)c3c2)c1C#N` [Compound 310, (7R)-7-[6-[2-cyano-3-[[ethyl(methyl)sulfamoyl]amino]-6-fluoro-phenoxy]-4-oxo-quinazolin-3-yl]-2-[2-[3-(2,4-dioxohexahydropyrimidin-1-yl)-5-fluoro-1-methyl-indazol-6-yl]-2-azaspiro[3.3]heptan-6-yl]-5-oxa-2-azaspiro[3.4]octane], the DC50 at BRAF V600E (setting [1]), at BRAF V600E (setting [2]), on BRAF V600E (setting [4]) and on BRAF V600E (setting [6]) was less than 1000 nM each time. The Emax is less than 50% on BRAF V600E (setting [3]), less than 50% at BRAF V600E (setting [5]) and 50 to 90% in the assay on A375-NRAS^Q61K cells (setting [7]). This molecule showed a concentration for 50% growth inhibition (GI50) in the assay on A375-NRAS^Q61K cells (Homo sapiens, 96 h) of 1000 to 10000 nM.
